Source: ChEMBL document CHEMBL1136129, “Design and synthesis of poly(ADP-ribose)polymerase-1 (PARP-1) inhibitors. Part 3: In vitro evaluation of 1,3,4,5-tetrahydro-benzo[c][1,6]- and [c][1,7]-naphthyridin-6-ones” (Bioorg Med Chem Lett, 2003)

Experiments:
[1] = molecular target: Poly [ADP-ribose] polymerase 1 (Homo sapiens, UniProt P09874); assay: Inhibition of human recombinant Poly (ADP-ribose) polymerase 1
[2] = Effective concentration was determined from in vitro cellular peroxide toxicity assay; assay type: functional

Poly [ADP-ribose] polymerase 1, sequence (P09874 whole entry): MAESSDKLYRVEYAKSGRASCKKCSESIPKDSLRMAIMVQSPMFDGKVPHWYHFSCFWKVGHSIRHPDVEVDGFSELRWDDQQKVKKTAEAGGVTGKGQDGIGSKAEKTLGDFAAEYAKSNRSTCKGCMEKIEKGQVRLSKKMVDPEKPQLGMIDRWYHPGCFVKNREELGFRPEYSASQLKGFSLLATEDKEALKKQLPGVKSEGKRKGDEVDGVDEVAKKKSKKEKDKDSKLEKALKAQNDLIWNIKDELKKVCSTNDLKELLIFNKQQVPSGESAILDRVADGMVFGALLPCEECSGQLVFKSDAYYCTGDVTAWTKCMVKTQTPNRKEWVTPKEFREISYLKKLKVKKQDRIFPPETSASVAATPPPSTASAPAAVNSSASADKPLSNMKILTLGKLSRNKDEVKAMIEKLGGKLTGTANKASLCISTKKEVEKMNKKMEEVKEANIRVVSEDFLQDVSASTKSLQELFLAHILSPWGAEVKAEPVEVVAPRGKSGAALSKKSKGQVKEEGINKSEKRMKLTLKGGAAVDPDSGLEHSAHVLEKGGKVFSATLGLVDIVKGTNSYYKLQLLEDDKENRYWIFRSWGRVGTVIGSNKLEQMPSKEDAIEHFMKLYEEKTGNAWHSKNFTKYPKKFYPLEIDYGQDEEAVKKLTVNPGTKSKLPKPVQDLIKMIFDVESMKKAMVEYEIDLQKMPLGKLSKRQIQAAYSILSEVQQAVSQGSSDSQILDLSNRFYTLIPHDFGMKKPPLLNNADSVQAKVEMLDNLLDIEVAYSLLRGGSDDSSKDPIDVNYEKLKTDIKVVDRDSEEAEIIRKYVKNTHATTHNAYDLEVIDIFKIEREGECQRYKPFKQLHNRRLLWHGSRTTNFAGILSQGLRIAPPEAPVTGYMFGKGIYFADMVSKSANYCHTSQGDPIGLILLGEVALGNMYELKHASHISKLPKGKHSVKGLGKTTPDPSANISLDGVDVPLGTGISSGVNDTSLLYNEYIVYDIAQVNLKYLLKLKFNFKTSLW

SMILES	IC50 [1] [nM]	EC50 [2] [nM]
O=C(CN1CCC(N2CCCC2)CC1)N1CCc2nc(O)c3ccccc3c2C1	185	850
O=S(=O)(CCN1CCC(N2CCCC2)CC1)N1CCc2c(nc(O)c3ccccc23)C1	349	1780
N[C@@H](CCC(=O)N1CCc2nc(O)c3ccccc3c2C1)C(=O)O	89	30000
Oc1nc2c(c3ccccc13)CCNC2	30	45
O=C(CN1CCCCC1)N1CCc2c(nc(O)c3ccccc23)C1	–	260
O=c1[nH]c2c(c3ccccc13)CN(S(=O)(=O)CCN1CCC(N3CCCC3)CC1)CC2	357	–
O=C(CCN1CCC(N2CCCC2)CC1)N1CCc2nc(O)c3cc(F)ccc3c2C1	32	610
O=C(CCN1CCCCC1)N1CCc2[nH]c(=O)c3cc(F)ccc3c2C1	25	30
Oc1nc2c(c3ccccc13)CNCC2	–	40
O=C(CN1CCCCC1)N1CCc2nc(O)c3ccccc3c2C1	–	60
O=C([C@@H]1CCCN1)N1CCc2c(nc(O)c3ccccc23)C1	31	100
O=C(CCN1CCCCC1)N1CCc2c(nc(O)c3ccccc23)C1	240	–
O=c1[nH]c2c(c3ccccc13)CCN(S(=O)(=O)CCN1CCCCC1)C2	376	2790
O=C(CN1CCN(C2CCCC2)CC1)N1CCc2c(nc(O)c3ccccc23)C1	116	690
O=C(CCN1CCCCC1)N1CCc2nc(O)c3ccccc3c2C1	–	58
Oc1nc2c(c3ccc(F)cc13)CNCC2	20	40
O=C(CCN1CCC(N2CCCC2)CC1)N1CCc2c(nc(O)c3ccccc23)C1	243	–
Oc1nc2c(c3ccccc13)CCCC2	167	–
